Columns and labels:
Assay in all cases: CCK-8 cell viability assay
Assay type in all cases: cell-based
Hela = system: Hela
Method: (§1) Tumor cells OVCAR3 (ovarian cancer), HeLa ([…]), U251 (glioma), H9 cells, and non-tumor HEK293 cells were cultured in DMEM/F12 medium supplemented with 10% FBS and 1% P/S. When cells reached 70% confluency, they were digested with 0.25% Trypsin at 37°C for 2-3 minutes, and digestion was stopped with DMEM/F12 medium. Cell suspensions were collected in 15 mL centrifuge tubes, centrifuged at 1000 rpm for 5 minutes, the supernatant was discarded, and cells were resuspended in DMEM/F12 medium with 10% FBS and 1% P/S. Cells were counted using a hemocytometer, and based on the counts, they were resuspended to the desired concentration. Tumor cells were seeded in 96-well plates at 1×10^4 cells per well, 100 µL per well. From day 1 to day 7 after seeding, cells were treated with compound II-1 at 0 µM, 10 µM, 30 µM, and 50 µM (the pyrazolecarbonyl piperazinone compounds were diluted to 10 µM, 30 µM, and 50 µM with DMEM + 10% FBS). Each concentration was tested in triplicate wells.
(§2) Cell viability on days 1, 3, 5, and 7 was determined using the CCK-8 cell proliferation/cytotoxicity assay kit (Vazyme, A311-02) by measuring absorbance at OD450 nm, with wells containing only medium and CCK-8 solution as blank controls. Each concentration was measured in triplicate.
(§3) Calculation of cell survival rate: For the same cell type at the same time point, the absorbance of cells not treated with compound II-1 was set as 100% baseline. For cells treated with different concentrations, the absorbance was compared with the control group (CK) to calculate the relative proportion. For example, the survival rate of H9 cells on day 4 treated with 30 µM of the small molecule compound was calculated as follows: [OD(D4)30μMiPS]/[OD(D4)0μMH9] × 100% [formula] Table 2. Cell survival rates of various cell types after treatment with different concentrations of compound II-1 measured by CCK-8 assay

H9 = system: H9
Method: as §1, §2, §3

HEK293 = system: HEK293
Method: as §1, §2, §3

OVCAR3 = system: OVCAR3
Method: as §1, §2, §3

U251 = system: U251
Method: as §1, §2, §3

Q: What does the source list for `O=C1CN(C(=O)c2n[nH]c3c2CCC3)[C@H]2CCCC[C@@H]2N1` [II-1, (4aS,8aS)-4-(1,4,5,6-tetrahydrocyclopenta[c]pyrazole-3-carbonyl)octahydroquinoxalin-2(1H)-one]?
A: Cell survival rate (Hela; II-1 10 µM, Day 1 Treatment): 103.32%; Cell survival rate (Hela; II-1 10 µM, Day 3 Treatment): 98.58%; Cell survival rate (Hela; II-1 10 µM, Day 5 Treatment): 97.35%; Cell survival rate (Hela; II-1 10 µM, Day 7 Treatment): 97.27%; Cell survival rate (Hela; II-1 30 µM, Day 1 Treatment): 100.64%; Cell survival rate (Hela; II-1 30 µM, Day 3 Treatment): 93.45%; Cell survival rate (Hela; II-1 30 µM, Day 5 Treatment): 90.71%; Cell survival rate (Hela; II-1 30 µM, Day 7 Treatment): 85.04%; Cell survival rate (Hela; II-1 50 µM, Day 1 Treatment): 88.66%; Cell survival rate (Hela; II-1 50 µM, Day 3 Treatment): 81.80%; Cell survival rate (Hela; II-1 50 µM, Day 5 Treatment): 80.31%; Cell survival rate (Hela; II-1 50 µM, Day 7 Treatment): 75.83%; cell viability, course with time and concentration (Hela; II-1 10-50 µM, days 1-7): gradual decrease in cell viability over time; Cell survival rate (H9; H9, II-1 10 µM, Day 1 Treatment): 90.37%; Cell survival rate (H9; H9, II-1 10 µM, Day 3 Treatment): 92.91%; Cell survival rate (H9; H9, II-1 10 µM, Day 5 Treatment): 84.84%; Cell survival rate (H9; H9, II-1 10 µM, Day 7 Treatment): 83.47%; Cell survival rate (H9; H9, II-1 30 µM, Day 1 Treatment): 84.96%; Cell survival rate (H9; H9, II-1 30 µM, Day 3 Treatment): 86.01%; Cell survival rate (H9; H9, II-1 30 µM, Day 5 Treatment): 80.25%; Cell survival rate (H9; H9, II-1 30 µM, Day 7 Treatment): 78.71%; Cell survival rate (H9; H9, II-1 50 µM, Day 1 Treatment): 76.96%; Cell survival rate (H9; H9, II-1 50 µM, Day 3 Treatment): 73.87%; Cell survival rate (H9; H9, II-1 50 µM, Day 5 Treatment): 69.10%; Cell survival rate (H9; H9, II-1 50 µM, Day 7 Treatment): 65.98%; cell viability, course with time and concentration (H9; H9, II-1 10-50 µM, days 1-7): gradual decline in viability; Cell survival rate (HEK293; HEK293, II-1 10 µM, Day 1 Treatment): 96.09%; Cell survival rate (HEK293; HEK293, II-1 10 µM, Day 3 Treatment): 96.67%; Cell survival rate (HEK293; HEK293, II-1 10 µM, Day 5 Treatment): 98.80%; Cell survival rate (HEK293; HEK293, II-1 10 µM, Day 7 Treatment): 99.24%; Cell survival rate (HEK293; HEK293, II-1 30 µM, Day 1 Treatment): 93.69%; Cell survival rate (HEK293; HEK293, II-1 30 µM, Day 3 Treatment): 94.14%; Cell survival rate (HEK293; HEK293, II-1 30 µM, Day 5 Treatment): 94.39%; Cell survival rate (HEK293; HEK293, II-1 30 µM, Day 7 Treatment): 94.97%; Cell survival rate (HEK293; HEK293, II-1 50 µM, Day 1 Treatment): 80.80%; Cell survival rate (HEK293; HEK293, II-1 50 µM, Day 3 Treatment): 90.72%; Cell survival rate (HEK293; HEK293, II-1 50 µM, Day 5 Treatment): 92.46%; Cell survival rate (HEK293; HEK293, II-1 50 µM, Day 7 Treatment): 93.56%; cell viability, course with time and concentration (HEK293; non-tumor HEK293, II-1 10-50 µM, days 1-7): did not show significant changes; Cell survival rate (OVCAR3; OVCAR3, II-1 10 µM, Day 1 Treatment): 95.05%; Cell survival rate (OVCAR3; OVCAR3, II-1 10 µM, Day 3 Treatment): 98.06%; Cell survival rate (OVCAR3; OVCAR3, II-1 10 µM, Day 5 Treatment): 96.19%; Cell survival rate (OVCAR3; OVCAR3, II-1 10 µM, Day 7 Treatment): 97.99%; Cell survival rate (OVCAR3; OVCAR3, II-1 30 µM, Day 1 Treatment): 89.67%; Cell survival rate (OVCAR3; OVCAR3, II-1 30 µM, Day 3 Treatment): 94.18%; Cell survival rate (OVCAR3; OVCAR3, II-1 30 µM, Day 5 Treatment): 92.35%; Cell survival rate (OVCAR3; OVCAR3, II-1 30 µM, Day 7 Treatment): 90.98%; Cell survival rate (OVCAR3; OVCAR3, II-1 50 µM, Day 1 Treatment): 88.56%; Cell survival rate (OVCAR3; OVCAR3, II-1 50 µM, Day 3 Treatment): 90.37%; Cell survival rate (OVCAR3; OVCAR3, II-1 50 µM, Day 5 Treatment): 85.37%; Cell survival rate (OVCAR3; OVCAR3, II-1 50 µM, Day 7 Treatment): 80.83%; cell viability, course with time and concentration (OVCAR3; OVCAR3, II-1 10-50 µM, days 1-7): gradual decrease in cell viability over time; Cell survival rate (U251; U251, II-1 10 µM, Day 1 Treatment): 100.75%; Cell survival rate (U251; U251, II-1 10 µM, Day 3 Treatment): 98.96%; Cell survival rate (U251; U251, II-1 10 µM, Day 5 Treatment): 95.19%; Cell survival rate (U251; U251, II-1 10 µM, Day 7 Treatment): 94.74%; Cell survival rate (U251; U251, II-1 30 µM, Day 1 Treatment): 99.49%; Cell survival rate (U251; U251, II-1 30 µM, Day 3 Treatment): 87.01%; Cell survival rate (U251; U251, II-1 30 µM, Day 5 Treatment): 79.39%; Cell survival rate (U251; U251, II-1 30 µM, Day 7 Treatment): 74.00%; Cell survival rate (U251; U251, II-1 50 µM, Day 1 Treatment): 98.61%; Cell survival rate (U251; U251, II-1 50 µM, Day 3 Treatment): 85.27%; Cell survival rate (U251; U251, II-1 50 µM, Day 5 Treatment): 70.43%; Cell survival rate (U251; U251, II-1 50 µM, Day 7 Treatment): 63.89%; cell viability, course with time and concentration (U251; U251, II-1 10-50 µM, days 1-7): gradual decrease in cell viability over time
